Source: ChEMBL document CHEMBL5137055, “Near-Infrared Fluorescent Probes as Imaging and Theranostic Modalities for Amyloid-Beta and Tau Aggregates in Alzheimer's Disease” (J Med Chem, 2022)

Legend:
[1] = Lipophilicity, logP of compound; assay type: physicochemical; conditions: octanol/water
[2] = Inhibition of amyloid beta (unknown origin) self-induced aggregation; parameters: species or system Homo sapiens
[3] = Binding affinity to amyloid beta (unknown origin) aggregates; parameters: species or system Homo sapiens
[4] = biological target: T1, Amyloid-beta precursor protein (Homo sapiens, UniProt P05067); experiment: Binding affinity to amyloid beta (1 to 40) (unknown origin) fibrils
[5] = Binding affinity to amyloid beta (unknown origin); parameters: species or system Homo sapiens
[6] = Drug uptake in brain of Tg mouse; assay type: ADME, tissue-based
[7] = biological target: T1, Amyloid-beta precursor protein; experiment: Displacement of [125I]IMPY from amyloid beta (1 to 42) (unknown origin) measured by competitive radioligand binding assay
[8] = biological target: T1, Amyloid-beta precursor protein; experiment: Binding affinity to amyloid beta (1 to 42) (unknown origin) aggregates
[9] = biological target: T1, Amyloid-beta precursor protein; experiment: Binding affinity to human amyloid beta (1 to 40) monomer measured by fluorescence assay
[10] = biological target: T1, Amyloid-beta precursor protein; experiment: Binding affinity to human amyloid beta (1 to 40) aggregates measured by fluorescence assay
[11] = biological target: T1, Amyloid-beta precursor protein; experiment: Binding affinity to human amyloid beta (1 to 42) oligomer measured by fluorescence assay
[12] = biological target: T1, Amyloid-beta precursor protein; experiment: Binding affinity to amyloid beta (1 to 42) (unknown origin) monomer
[13] = biological target: T1, Amyloid-beta precursor protein; experiment: Binding affinity to amyloid beta (1 to 40) (unknown origin) monomer
[14] = biological target: T1, Amyloid-beta precursor protein; experiment: Binding affinity to amyloid beta (1 to 42) (unknown origin) fibrils
[15] = Binding affinity to tau protein (unknown origin); parameters: species or system Homo sapiens
Homo sapiens [16] = species on record: Homo sapiens; experiment: Inhibition of amyloid beta (unknown origin) assessed as decrease in amyloid beta monomers
Homo sapiens [17] = species on record: Homo sapiens; experiment: Inhibition of amyloid beta (unknown origin) measured by ThT-based fluorimetric assay; conditions: concentration not given here
[18] = Binding affinity to amyloid beta (unknown origin) monomer; parameters: species or system Homo sapiens
[19] = biological target: T1, Amyloid-beta precursor protein; experiment: Binding affinity to amyloid beta (1 to 42) (unknown origin) oligomer
[20] = biological target: T1, Amyloid-beta precursor protein; experiment: Binding affinity to amyloid beta (1 to 40) (unknown origin) oligomer
[21] = biological target: T1, Amyloid-beta precursor protein; experiment: Binding affinity to amyloid beta (1 to 40) (unknown origin) aggregates
[22] = biological target: T1, Amyloid-beta precursor protein; experiment: Binding affinity to human amyloid beta (1 to 42) monomer measured by fluorescence assay

T1 sequence (P05067 whole entry): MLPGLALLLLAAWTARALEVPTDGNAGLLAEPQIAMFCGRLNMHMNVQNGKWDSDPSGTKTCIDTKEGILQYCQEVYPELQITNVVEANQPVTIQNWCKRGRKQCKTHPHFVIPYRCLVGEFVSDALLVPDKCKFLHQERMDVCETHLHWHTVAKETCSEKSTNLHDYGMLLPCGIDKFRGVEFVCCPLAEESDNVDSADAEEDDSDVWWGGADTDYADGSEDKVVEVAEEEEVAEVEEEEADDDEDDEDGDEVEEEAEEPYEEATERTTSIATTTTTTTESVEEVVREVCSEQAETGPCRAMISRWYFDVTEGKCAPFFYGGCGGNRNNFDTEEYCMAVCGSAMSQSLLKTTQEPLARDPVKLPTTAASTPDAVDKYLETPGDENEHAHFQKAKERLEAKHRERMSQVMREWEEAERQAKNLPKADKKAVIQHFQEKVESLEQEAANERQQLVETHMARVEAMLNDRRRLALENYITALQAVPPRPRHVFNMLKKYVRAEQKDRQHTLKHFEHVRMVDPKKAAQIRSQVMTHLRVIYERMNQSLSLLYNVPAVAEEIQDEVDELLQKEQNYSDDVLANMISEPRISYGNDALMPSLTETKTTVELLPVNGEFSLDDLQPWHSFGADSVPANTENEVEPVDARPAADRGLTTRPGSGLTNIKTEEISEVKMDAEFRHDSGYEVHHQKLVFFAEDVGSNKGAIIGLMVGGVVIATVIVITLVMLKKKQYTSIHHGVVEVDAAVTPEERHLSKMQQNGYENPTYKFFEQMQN

CCOC(=O)CN1C(=O)S/C(=C\C=C\c2ccc3c(c2)Sc2ccccc2N3C)C1=O
logP [1]: 3.6 | IC50 [2]: 1.8 µM | Kd [3]: 0.0103 µM

COCCOCCn1c2ccccc2c2cc(/C=C/c3cc[n+](C)cc3)ccc21
Kd [4]: 194 µM

CN(C)c1ncc(/C=C/C=C/C=C/C=C(C#N)C#N)cn1
Ki [5]: 0.978 µM

CN(C)c1ccc2cc(/C=C/C=C(C#N)C#N)ccc2c1
tissue uptake ([6]; Tg, brain, read-out: Drug uptake): 1.9 %ID/g | logP [1]: 4.1 | Kd [3]: 0.0088 µM | Ki [3]: 0.0967 µM

CN(C)c1ccc(/C=C/C=C/C=C/C=C(C#N)C#N)cn1
Ki [5]: 0.0926 µM

CN(C)c1ncc(/C=C/c2nc3cc(OCC[18F])ccc3[se]2)cn1
logP [1]: 1.28 | Kd [5]: 0.0017 µM

CN(C)c1ccc(-c2ccc(/C=C/C3=CC(=C(C#N)C#N)c4ccccc4N3CCCS(=O)(=O)O)s2)cc1
Kd [5]: 0.17 µM

COC(=O)C(=C/C=C/C=C/c1ccc(N(C)C)cc1)C(=O)OC
Ki [7]: 0.652 µM | Ki [5]: 0.645 µM

CCN1/C(=C/C=C2\CCCC(/C=C(/C#N)C(=O)C(C)(C)C)=C2Cl)C(C)(C)c2ccccc21
Kd [8]: 0.445 µM

Cc1c(/C=C/C2=CC(/C=C/c3cnn(-c4ccccc4)c3C)=[O+][B-](F)(F)O2)cnn1-c1ccccc1
Kd [9]: 0.0857 µM | Kd [10]: 0.0524 µM | Kd [11]: 0.0688 µM

COCCOCCn1c2ccccc2c2cc(/C=C/c3cc[n+](C)c4ccccc34)ccc21
Kd [12]: 40.2 µM | Kd [13]: 96.6 µM | Kd [14]: 11.4 µM | Kd [4]: 13.1 µM

Cc1ccc2c(sc(-c3ccc4c(c3)sc(-c3ccc(N(C)C)cc3)[n+]4C)[n+]2C)c1S(=O)(=O)O
Kd [15]: 1.9 µM

Nc1c(/N=N/c2ccc(-c3ccc(/N=N/c4cc(S(=O)(=O)O)c5ccccc5c4N)cc3)cc2)cc(S(=O)(=O)O)c2ccccc12
ID50 (Homo sapiens [16]): 3.4 µM

Cc1ccc2nc(/C=C/c3ccc(N)cc3)ccc2c1
inhibition (Homo sapiens [17]): 73%

CCCN(CCC)c1ccc(/C=C/c2cc[n+](OCC)c3ccccc23)cc1
Kd [12]: 13.1 µM | Kd [13]: 6.18 µM | Kd [14]: 3.19 µM | Kd [4]: 1.13 µM

Cc1cc(/C=C/c2ccc(N(C)C)s2)n2c1C=C1C=CC=[N+]1[B-]2(F)F
Kd [18]: 0.055 µM

CN(C)c1ccc(/C=C/C=C/C=C/C=C(C#N)C#N)cc1
Ki [5]: 0.0141 µM

CC(=C(C#N)C#N)c1ccc2cc(N(C)C)ccc2c1
Ki [3]: 0.01 µM

N#CC(C#N)=Cc1ccc(-c2ccc(-c3ccc(O)cc3)s2)s1
Kd [5]: 0.0546 µM | Ki [5]: 0.01 µM

CN(CCO)c1ccc2cc(/C=C/C=C/C=C(C#N)C#N)ccc2c1
Kd [7]: 0.0145 µM

CN(C)c1ccc2nc(/C=C/c3ccc(C=C(C#N)C#N)cc3)sc2c1
Kd [14]: 0.11 µM

COc1cc(N(C)C)cc(OC)c1/C=C/C(=O)/C=C(O)/C=C/c1c(OC)cc(N(C)C)cc1OC
IC50 [15]: 0.77 µM

CCCCN(CCCC)c1ccc2cc(/C=C/c3c[n+](C)cc4ccccc34)ccc2c1
Kd [12]: 25.3 µM | Kd [19]: 20.8 µM | Kd [13]: 81 µM | Kd [14]: 97.9 µM | Kd [20]: 36.4 µM | Kd [4]: 1110 µM

CC1=[N+]2C(=C(/C=C/c3ccc(N(C)C)cc3)c3ccc(C)n3[B-]2(F)F)C=C1
Kd [18]: 0.32 µM

Cc1cc(/C=C/c2ccc3cc(N(C)C)ccc3c2)n2c1C=C1C=CC=[N+]1[B-]2(F)F
Kd [15]: 0.00119 µM | Kd [3]: 0.161 µM

CN(C)c1ccc2nc(/C=C/C=C/C=C(C#N)C#N)cnc2c1
Drug uptake ([6]; in vivo): 7.76% | Kd [5]: 0.0332 µM | Kd [15]: 0.0431 µM

CCCC[N+]1=C(/C=C/c2ccc(N(CC)CC)cc2)C(C)(C)c2ccccc21
Ki [21]: 0.00137 µM | IC50 [15]: 0.00141 µM | Kd [4]: 0.93 µM

COc1ccc(/C=C/C2=[N+]3C(=C(/C=C/c4ccc(N(C)C)cc4)c4ccc(/C=C/c5ccc(OC)cc5)n4[B-]3(F)F)C=C2)cc1
Kd [18]: 0.32 µM

C[n+]1ccc(/C=C/c2ccc(N(c3ccccc3)c3ccccc3)cc2)c2ccccc21
Kd [12]: 31.7 µM | Kd [13]: 25.9 µM | Kd [14]: 17.4 µM | Kd [4]: 14.6 µM

Cc1cc(/C=C/C=C/c2ccc(N(C)C)cc2)n2c1C=C1C=CC=[N+]1[B-]2(F)F
Kd [15]: 0.00286 µM | Kd [3]: 0.325 µM

CC(=C(C#N)C#N)c1ccc2cc(N(C)CCF)ccc2c1
Ki [3]: 0.0002 µM

Cc1cc(/C=C/c2ccc(N(C)C)cc2)n2c1C=C1C=CC=[N+]1[B-]2(F)F
Kd [15]: 0.0441 µM | Kd [18]: 0.189 µM

CN(C)c1ccc(/C=C/C2=CC(/C=C/c3ccc(N(C)C)cc3)=[O+][B-]3(OC(=O)C(=O)O3)O2)cc1
Kd [22]: 0.0032 µM | Kd [10]: 0.0381 µM | Kd [11]: 0.0038 µM

C[N+]1=C(/C=C/c2ccc(N3CCCC3)cc2)C(C)(C)c2ccccc21
IC50 [15]: 0.0051 µM | Kd [4]: 8.31 µM

CC[n+]1c(/C=C/C=C/c2ccc(N(C)C)cc2)sc2ccccc21
Kd [15]: 0.126 µM | Kd [4]: 1.22 µM

COc1cc(N(C)C)cc(OC)c1/C=C/C=C/C=C/C(C#N)C(=O)OCc1ccco1 (configuration not stated)
Kd [5]: 1.5 µM | Kd [15]: 1.02 µM
